In patent publication US20100311726A1, “REDUCTION OF BETA-AMYLOID LEVELS BY TREATMENT WITH THE SMALL MOLECULE DIFFERENTIATION-INDUCING FACTOR” (priority 2007, published 2010):

Experiments:
secreted APP and Aβ = test: Secreted APP and total Aβ in conditioned media by western blot; assay type: cell-based, human; conditions: CHO-7W, 30 μM, antibody 6E10
Protocol: The levels of secreted Aβ from CHO-7W cells stably overexpressing APP^751 and CHO-CAB cells that overexpress APP^751 and human BACE1 was quantified by ELISA and viewed by western blot using the monoclonal anti-APP antibody (6E10) that recognizes residues 1-17 of Aβ. Cells (5×10^5) were deposited into 6-well tissue culture dishes in triplicate and allowed to settle and grow for 24 hours. At this time, the media was aspirated and the cells were washed 2× in warm PBS. Fresh media (2 mL) and media supplemented with vehicle or DIF-1 was added to each well. […] Since DIF-1 exerts a cytostatic effect, the cell number was counted for all treatments upon removal of the conditioned media and used to normalize the levels of Aβ. […] The concentration of Aβ40 and Aβ42 was subsequently detected in triplicate using the β-Amyloid 1-40 or 1-42 Colorimetric ELISA kit (Biosource International, Inc.) according to the manufacturer's instructions.
We then looked at what effect this had on the levels of secreted soluble APP and Aβ production. […] The conditioned media was analyzed using anti-APP antibody 6E10 in order to detect total βP levels and sαAPP levels since it recognizes the amino acids 1-17 of Aβ and thus cannot detect sβAPP. […] The blots were analyzed using a phosphorimager.

[1] = neutral pH; cited from earlier work

In the case of `CCCCCC(=O)c1c(O)c(Cl)c(OC)c(Cl)c1O` [DIF-1, 1-[3,5-dichloro-2,6-dihydroxy-4-methoxyphenyl]-1-hexanone], the “level of total Aβ in conditioned media by western blot” value (secreted APP and Aβ) is listed as “reduced the level of total Aβ”, the “level of total secreted APP in conditioned media” value (secreted APP and Aβ) is listed as “reduced the level of total secreted APP” and the solubility [1] is listed as “soluble in both water and hexane”.
